The test system of data set [1] is bacteria. As to the kind of experiment: Growth of bacteria in presence of lysergol alone (killing activity). The class given is cell-based. To be noted: 10 µg/ml, no antibiotic. As to the method:
The invention is further explained in the form of following embodiments. • 1. Assay for bio-enhancement of anti-infective agents • (a) The minimum inhibitory concentration (MIC) of antibiotic is determined against Escherichia coli (ATCC 10536), Bacillus subtilis (ATCC 6051) and Mycobacterium smegmatis (ATCC 14468) in broth and disc diffusion assay. • (b) The antibiotics at concentrations 1/4, 1/3, 1/2 and equal to MIC are added alone and in combination with the test compound at varying concentrations on disc and in broth to evaluate the comparative inhibition. • (c) These combinations showing significant advantage or higher activity than antibiotic alone in terms of enhanced inhibition of bacterial growth (large inhibition zone in disc diffusion and effectivity of lower concentration in broth assay) are picked up for future testing. • (d) In broth assay the activity is quantified by counting number of viable cells in a given treatment and converted in fold enhancement by combination compared to antibiotic / drug alone in the killing percentage of cells. • (e) The pretreatment assay followed to determine whether the compound is required along with antibiotic to enhance its activity or even its withdrawal after treatment or prior to antibiotic treatment would benefit. […]

A short description of data set [2]: Transport of antibiotics across freshly isolated gut membrane in U-shaped tubes (absorbency in right arm). The class given is in vitro ADME.
Procedure: We performed the experiments in U-shaped tubes with joint in between, where the freshly isolated gut membrane is fixed. In control tube only antibiotic solution (4ml @ 1mg/ml solution) is poured in the left arm where as in the right arm only water is poured. In the other tube in addition to the antibiotic solution lysergol (4µg @ 1µg/ml) is added.
Data set [3] concerns Mycobacterium smegmatis. As to the kind of experiment: Broth assay, viable cell count: killing action of antibiotic alone and in combination with lysergol. Type of data set: cell-based, Mycobacterium smegmatis (ATCC 14468). The protocol:
(§1) The invention is further explained in the form of following embodiments. • 1. Assay for bio-enhancement of anti-infective agents • (a) The minimum inhibitory concentration (MIC) of antibiotic is determined against Escherichia coli (ATCC 10536), Bacillus subtilis (ATCC 6051) and Mycobacterium smegmatis (ATCC 14468) in broth and disc diffusion assay. • (b) The antibiotics at concentrations 1/4, 1/3, 1/2 and equal to MIC are added alone and in combination with the test compound at varying concentrations on disc and in broth to evaluate the comparative inhibition. • (c) These combinations showing significant advantage or higher activity than antibiotic alone in terms of enhanced inhibition of bacterial growth (large inhibition zone in disc diffusion and effectivity of lower concentration in broth assay) are picked up for future testing. • (d) In broth assay the activity is quantified by counting number of viable cells in a given treatment and converted in fold enhancement by combination compared to antibiotic / drug alone in the killing percentage of cells. • (e) The pretreatment assay followed to determine whether the compound is required along with antibiotic to enhance its activity or even its withdrawal after treatment or prior to antibiotic treatment would benefit. For this, the cells are treated with compound for 4 to 8 hours and then washed free of it by centrifugation and washing in sterile water. This is followed by treatment with antibiotic as in steps b to d.
(§2) Bioactivity is experimented with the killing activities of different antibiotics against the bacteria singly and in combination with the test compound Lysergol following the method described above. These experiments are being described in the following examples. […] In all the experiments the Lysergol concentration is kept at 10 µg/ml, unless it is specifically mentioned.
Lysergol mediated enhancement in the killing action of antibiotics against bacterium Mycobacterium smegmatis Table 3: […]

Data set [4] deals with Bacillus subtilis. The data set is described as above. Type of data set: cell-based, Bacillus subtilis (ATCC 6051). As to the method: as §1, §2
Lysergol mediated enhancement in the killing action of antibiotics against Gram positive bacterium Bacillus subtilis.

In data set [5] the test system is Escherichia coli. As to the kind of experiment: microbe, parasite or virus in culture. The protocol:
The invention is further explained in the form of following embodiments. • 1. […] For this, the cells are treated with compound for 4 to 8 hours and then washed free of it by centrifugation and washing in sterile water. […] These experiments are being described in the following examples. […] In all the experiments the Lysergol concentration is kept at 10 µg/ml, unless it is specifically mentioned.

Setting [6] is: Escherichia coli, read-out: Survival fraction of viable cells upon treatment with antibiotic alone.

SMILES strings stand for the structures.

`CN1C[C@H](CO)C=C2c3cccc4[nH]cc(c34)C[C@H]21` [Lysergol, 9,10-Didehydro-6-methylergoline-8-[…]-methanol]: the “killing of bacteria grown in presence of the compound as such” value in data set [1] was “no significant killing”.
Turning to `CO[C@H]1/C=C/O[C@@]2(C)Oc3c(C)c(O)c4c(O)c(c(/C=N/N5CCN(C)CC5)c(O)c4c3C2=O)NC(=O)/C(C)=C\C=C\[C@H](C)[C@H](O)[C@@H](C)[C@@H](O)[C@@H](C)[C@H](OC(C)=O)[C@@H]1C` [Rifampicin], in data set [2], the Increase in absorbency is listed as 0.131. In data set [3] (Mycolicibacterium smegmatis, read-out: Survival fraction of viable cells upon treatment with antibiotic alone), the viability at 0.2 µg/mL lay in the range of 45 to 54%. In addition, the “Survival fraction of viable cells upon treatment with antibiotic + lysergol combination” value in data set [3] (antibiotic 0.2 µg/ml + lysergol 10 µg/ml) is on record as 0.09-0.10; in data set [4] (antibiotic 0.4 µg/ml + lysergol 10 µg/ml), 0.021-0.028. Further, the “Fold enhancement in antibiotic activity” value in data set [3] (antibiotic 0.2 µg/ml + lysergol 10 µg/ml versus antibiotic alone) is given as 4.5-6.0 fold; in data set [4] (antibiotic 0.4 µg/ml + lysergol 10 µg/ml versus antibiotic alone), 3.0-4.6 fold; in data set [5] (antibiotic 10 µg/ml + lysergol 10 µg/ml versus antibiotic alone), 6-12 fold; in data set [5] (antibiotic 20 µg/ml + lysergol 10 µg/ml versus antibiotic alone) it was 3-5 fold. Besides, the viability at 0.4 µg/mL in data set [4] (Bacillus subtilis, read-out: Survival fraction of viable cells upon treatment with antibiotic alone) was in the range of 8.5 to 9.6%. Besides, the viability at 10 µg/mL in data set [5] (setting [6]) was in the range of 35 to 45%. For the same molecule, the viability at 20 µg/mL in data set [5] (setting [6]) lay in the range of 25 to 30%.

These data come from patent EP1370263B1, “ANTIBIOTIC PHARMACEUTICAL COMPOSITION WITH LYSERGOL AS BIO-ENHANCER AND METHOD OF TREATMENT” (Council of Scientific and Industrial Research, priority 2002, dated 2003).
